{
  "source": "patent US20260207623A1",
  "about": "“USE OF ESTETROL IN HEPATICALLY IMPAIRED PATIENTS” (ESTETRA SRL, priority 2022, published 2026)",
  "key": {"Haemoglobin A1C": {"system": "Haemoglobin A1C", "assay": "Example 3: haemoglobin A1C, change from baseline to week 12", "format": "in vivo, human"}, "post-menopausal women [1]": {"system": "post-menopausal women", "assay": "Example 2: adverse events (AEs, TEAEs) per treatment group", "format": "in vivo, human", "description": "This is confirmed by the following statistical analysis. Using a Poisson regression model with a random effect for the patient and treatment group as a covariate to model the count of TEAEs in the different treatment groups, it can be shown that there is no statistical difference between the treatment groups (p value of 0.099). Second, a chi-square test was used to assess if the prevalence of patients reporting TEAEs in each treatment group was similar. No statistical difference was found between the treatment groups (p value of 0.575)."}, "post-menopausal women [2]": {"system": "post-menopausal women", "assay": "Example 3 (15 mg, 20 mg E4 monohydrate or placebo): weekly frequency of moderate to severe VMS and responder proportions", "format": "in vivo, human", "description": "A further clinical study was designed to evaluate the effect of 15 or 20 mg estetrol (E4) monohydrate, or placebo on the severity and frequency of vasomotor symptoms (VMS) and the safety of E4 20 mg. The inclusion and exclusion criteria as described for Example 2 were maintained for the present Example (i.e. Example 3).\n• 1. Mean change in weekly frequency of moderate to severe vasomotor symptoms (VMS) from Baseline to Week 4 (Efficacy Study Part) [Time Frame: Baseline and Week 4]: • The weekly frequency of moderate to severe VMS at Baseline and Week 4 is defined as the total number (sum) of all recorded moderate to severe VMS experienced during the last 7 consecutive days prior randomization for Baseline and at Week 4. Mean change=mean weekly frequency at Week 4-mean weekly frequency at Baseline. • 2. Mean change in weekly frequency of moderate to severe vasomotor symptoms (VMS) from Baseline to Week 12 (Efficacy Study Part) [Time Frame: Baseline and Week 12] • The weekly frequency of moderate to severe VMS at Baseline and Week 12 is defined as the total number (sum) of all recorded moderate to severe VMS experienced during the last 7 consecutive days prior randomization for Baseline and at Week 12. Mean change=mean weekly frequency at Week 12-mean weekly frequency at Baseline. • 3. […]"}, "[3]": {"settings": "cited from earlier work"}},
  "note": "“Also recorded” adds a separate entry of the source. Like-named read-outs stand apart in the source and are kept apart here.",
  "data": [
    {"smiles": "C[C@]12CC[C@@H]3c4ccc(O)cc4CC[C@H]3[C@@H]1[C@@H](O)[C@@H](O)[C@@H]2O", "note": "[E4 monohydrate, estetrol monohydrate]", "values": [
      {"measurement": "haemoglobin A1C levels", "setting": "Haemoglobin A1C; 15 mg and 20 mg, after 12 weeks, monohydrate", "result": "decreased; also recorded: reduced"},
      {"measurement": "Haemoglobin A1C, mean", "setting": "Haemoglobin A1C; 15 mg, Baseline", "result": 5.625},
      {"measurement": "Haemoglobin A1C, mean", "setting": "Haemoglobin A1C; 15 mg, Week 12", "result": 5.504},
      {"measurement": "Haemoglobin A1C, mean", "setting": "Haemoglobin A1C; 20 mg, Baseline", "result": 5.605},
      {"measurement": "Haemoglobin A1C, mean", "setting": "Haemoglobin A1C; 20 mg, Week 12", "result": 5.458},
      {"measurement": "Count of Treatment Emergent AEs (TEAEs)", "setting": "post-menopausal women [1]; 2.5 mg daily", "result": 61},
      {"measurement": "Percentage of patients with TEAE leading to Study Discontinuation", "setting": "post-menopausal women [1]; 2.5 mg daily", "result": 1.9},
      {"measurement": "Percentage of patients with severe TEAE", "setting": "post-menopausal women [1]; 2.5 mg daily", "result": 7.7},
      {"measurement": "Count of Treatment Emergent AEs (TEAEs)", "setting": "post-menopausal women [1]; 5 mg daily", "result": 63},
      {"measurement": "Percentage of patients with TEAE leading to Study Discontinuation", "setting": "post-menopausal women [1]; 5 mg daily", "result": 6.4},
      {"measurement": "Percentage of patients with severe TEAE", "setting": "post-menopausal women [1]; 5 mg daily", "result": 10.6},
      {"measurement": "Count of Treatment Emergent AEs (TEAEs)", "setting": "post-menopausal women [1]; 10 mg daily", "result": 95},
      {"measurement": "Percentage of patients with TEAE leading to Study Discontinuation", "setting": "post-menopausal women [1]; 10 mg daily", "result": 5.6},
      {"measurement": "Percentage of patients with severe TEAE", "setting": "post-menopausal women [1]; 10 mg daily", "result": 7.4},
      {"measurement": "average AEs per patient among patients who had AEs", "setting": "post-menopausal women [1]; 10 mg group", "result": 3.2, "unit": "AEs per patient"},
      {"measurement": "Count of Treatment Emergent AEs (TEAEs)", "setting": "post-menopausal women [1]; 15 mg daily", "result": 82},
      {"measurement": "Percentage of patients with TEAE leading to Study Discontinuation", "setting": "post-menopausal women [1]; 15 mg daily", "result": 4.1},
      {"measurement": "Percentage of patients with severe TEAE", "setting": "post-menopausal women [1]; 15 mg daily", "result": 6.1},
      {"measurement": "average AEs per patient among patients who had AEs", "setting": "post-menopausal women [1]; 15 mg group", "result": 2.6, "unit": "AEs"}
    ]},
    {"smiles": "C[C@]12CC[C@@H]3c4ccc(O)cc4CC[C@H]3[C@@H]1[C@@H](O)[C@@H](O)[C@@H]2O", "note": "[E4, 1,3,5 (10)-estratrien-3,15alpha, 16alpha, 17beta-tetrol]", "values": [
      {"measurement": "frequency of moderate to severe VMS", "setting": "post-menopausal women [2]; 15 mg and 20 mg vs placebo, weeks 4 and 12 (FIG. 10)", "result": "significantly decreased"},
      {"measurement": "number of women with reduced VMS frequency (at least 50% or 75% reduction) vs placebo", "setting": "post-menopausal women [2]; FIG. 11", "result": "higher number of women that experienced a reduced VMS frequency than placebo"},
      {"measurement": "dose up to which well tolerated and safe", "setting": "[3]; given as a single dose", "result": "up to 100 mg"},
      {"measurement": "dose up to which well tolerated and safe", "setting": "[3]; given once daily for 28 days", "result": "up to 40 mg"}
    ]}
  ]
}
